In brackets after ≈: the same amount, converted by molar mass.
Tests used:
LRRK2 G2019S = LRRK2 G2019S (Homo sapiens (Human), UniProt Q5S007, G2019S); experiment: LRRK2 G2019S Kinase Assay; format: biochemical; details: 10 μM ATP
Experimental: Procedure: Enzyme was incubated with substrate peptide in reaction buffer in the presence and absence of test compounds or Staurosporine. All additions were done on ice, followed by the addition of ATP mix. Wells were uniformly mixed using an Eppendorff plate shaker and incubated at 30° C. for 20 min, and stopped by the addition of 5 μl of 3% phosphoric acid. Volume was increased to 100 μl by adding 0.8% phosphoric acid which was then transferred to PC filter mats (Millipore), pre-equilibrated with 70% ethanol and water. Plates were washed thrice with 100 μl 0.8% phosphoric acid and dried for an hour at 60° C. 100 μl scintillation fluid was added into each well and reading taken in Perkin Elmer TOPCOUNT beta counter. […] A validation EC50 curve was generated by plotting CPM for each Staurosporine concentration on y-axis against the Log concentration of Staurosporine (nM) on the x-axis followed by a best fit curve through the points.
After 1 hour Kinase Reaction incubation, 5 μL of Detection Mix was added.

in vivo = details: male, Sprague Dawley, rat
Source text: To investigate the pharmacokinetic profiles of test compound following intravenous bolus administration and oral gavage in male Sprague Dawley rats.

LRRK2 = LRRK2 (Homo sapiens (Human), UniProt Q5S007); experiment: LRRK2 Kinase Assay; format: biochemical; details: 10 μM ATP
Chain of LRRK2 (Q5S007 970-2527): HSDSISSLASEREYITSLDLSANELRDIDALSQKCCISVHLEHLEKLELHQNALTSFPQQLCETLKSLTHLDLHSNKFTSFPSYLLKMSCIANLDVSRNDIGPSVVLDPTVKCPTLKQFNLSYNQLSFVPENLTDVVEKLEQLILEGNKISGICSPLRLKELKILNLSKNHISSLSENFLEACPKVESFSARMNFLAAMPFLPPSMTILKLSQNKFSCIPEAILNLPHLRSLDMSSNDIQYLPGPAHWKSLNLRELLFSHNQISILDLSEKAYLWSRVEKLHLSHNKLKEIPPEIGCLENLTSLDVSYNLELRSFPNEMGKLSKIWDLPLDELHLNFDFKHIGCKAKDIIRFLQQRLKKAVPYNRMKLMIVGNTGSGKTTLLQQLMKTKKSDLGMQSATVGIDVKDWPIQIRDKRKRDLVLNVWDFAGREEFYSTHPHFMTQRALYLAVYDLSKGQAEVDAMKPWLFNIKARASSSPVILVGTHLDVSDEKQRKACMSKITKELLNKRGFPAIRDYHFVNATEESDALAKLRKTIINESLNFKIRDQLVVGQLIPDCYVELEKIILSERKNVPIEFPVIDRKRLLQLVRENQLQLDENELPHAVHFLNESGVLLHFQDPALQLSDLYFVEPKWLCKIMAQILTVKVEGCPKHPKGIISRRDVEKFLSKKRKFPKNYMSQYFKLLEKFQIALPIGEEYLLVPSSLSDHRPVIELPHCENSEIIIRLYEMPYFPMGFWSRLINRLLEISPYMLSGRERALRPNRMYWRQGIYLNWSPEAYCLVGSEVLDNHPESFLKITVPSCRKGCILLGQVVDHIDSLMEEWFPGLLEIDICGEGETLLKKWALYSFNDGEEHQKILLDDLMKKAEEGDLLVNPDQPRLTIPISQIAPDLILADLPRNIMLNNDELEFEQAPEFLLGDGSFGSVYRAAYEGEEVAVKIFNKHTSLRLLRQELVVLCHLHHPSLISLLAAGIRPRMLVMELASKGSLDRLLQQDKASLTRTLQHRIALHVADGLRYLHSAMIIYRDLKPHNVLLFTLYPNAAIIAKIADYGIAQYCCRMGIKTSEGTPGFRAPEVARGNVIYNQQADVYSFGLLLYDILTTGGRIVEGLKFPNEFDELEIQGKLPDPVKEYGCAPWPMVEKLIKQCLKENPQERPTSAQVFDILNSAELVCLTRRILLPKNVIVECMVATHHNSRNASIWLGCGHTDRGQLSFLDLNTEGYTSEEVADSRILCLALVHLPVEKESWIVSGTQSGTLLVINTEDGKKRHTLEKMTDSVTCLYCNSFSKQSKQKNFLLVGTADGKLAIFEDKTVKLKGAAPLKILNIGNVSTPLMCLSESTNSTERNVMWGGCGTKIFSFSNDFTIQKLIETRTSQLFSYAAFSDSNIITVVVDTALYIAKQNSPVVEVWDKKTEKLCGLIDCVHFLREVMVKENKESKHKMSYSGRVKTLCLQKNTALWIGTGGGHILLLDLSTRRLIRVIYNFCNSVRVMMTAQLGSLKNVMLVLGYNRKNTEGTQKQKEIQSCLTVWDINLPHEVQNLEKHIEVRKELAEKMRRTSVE
Experimental: (§1) Briefly, specific kinase/substrate pairs along with required cofactors were prepared in reaction buffer; 20 mM Hepes (pH 7.5), 10 mM MgCl2, 1 mM EGTA, 0.02% Brij35, 0.02 mg/ml BSA, 0.1 mM Na3VO4, 2 mM DTT, 1% DMSO. Compounds were delivered into the reaction, followed ˜20 min later by addition of a mixture of ATP (Sigma) and 33P ATP (PerkinElmer) to a final concentration of 10 μM. […] IC50 values and curve fits were obtained using Prism (GraphPad Software). Kinome tree representations were prepared using Kinome Mapper (http://www.reactionbiology.com/apps/kinome/mapper/Launch Kinome.htm).
For the wild type LRRK the 2×LRRK2/ERM (LRRKtide) mixture was prepared in 50 mM Tris pH 8.5, 0.01% BRIJ-35, 10 mM MgCl2, 1 mM EGTA, 0.02% NaN3. […] After 1 hour Kinase Reaction incubation, 5 μL of Detection Mix was added.

[1] = test system: MPTP-injected C57 black mice; experiment: MPTP mouse model of Parkinson's disease, oral pre-treatment; format: in vivo; details: for protection against MPTP-induced TH cell loss and dopaminergic degeneration in substantia nigra and striatum: 10 mg/kg and 30 mg/kg oral; for locomotor activities in MPTP-injected mice / striatal dopamine levels in MPTP treated mice: orally administered, pre-treatment
DYRK1A = DYRK1A (Homo sapiens (Human), UniProt Q13627); experiment: In vitro DYRK1A inhibition assay; format: biochemical
Experimental: as §1
The 2×DYRK1A/Ser/Thr 18 mixture was prepared in 50 mM HEPES pH 7.5, 0.01% BRIJ-35, 10 mM MgCl2, 1 mM EGTA.

[2] = test system: MPTP-injected C57 black mice; experiment: MPTP mouse model, intravenous pre-treatment; format: in vivo; details: 5 mg/kg i.v.
Experimental: 24 C57 black mice (C57/bl6, 6-8 week old, and 25-30 g) were purchased from Charles River Laboratories, Ohio. […] Prior to treatment animals were pre-trained on rotarod for at least 3 minutes every day for three successive days. Test compound (5 mg/kg) was administered intravenously to group C animals, 24 h prior to MPTP-injection and continued daily for additional 11 days. MPTP was dissolved in PBS and injected intraperitoneally (i.p.) at doses of 25 mg/kg, once daily for 5 days to group B and C animals. Group A animals were injected with saline (i.p.) to be used as controls. Urine and Faeces were collected on Day 8, behavioural studies were performed on Day 9 (4-days post-MPTP). On day 12 (7 days post-MPTP), 4 animals/group were sacrificed, different brains regions including striatum and substantia nigra were dissected. Left striatum were used for neurochemical analysis. Other 4 animals/group were perfused and used for TH immunohistological studies.

[3] = test system: 299 protein kinases+17 additional preview kinases; experiment: Protein Kinase Selectivity Profiler; format: biochemical, human; details: 10 μM ATP; for % enzyme inhibition relative to DMSO controls: LRRK2, LRRK2 G2019S, CHK1, DYRK1A, FLT3, MLK1, TNIK, TRKA, single dose 0.5 μM, 1 μM
Experimental: In vitro profiling of the 317 member kinase panel was performed at Reaction Biology Corporation using the “HotSpot” assay platform. Briefly, specific kinase/substrate pairs along with required cofactors were prepared in reaction buffer; 20 mM Hepes (pH 7.5), 10 mM MgCl2, 1 mM EGTA, 0.02% Brij35, 0.02 mg/ml BSA, 0.1 mM Na3VO4, 2 mM DTT, 1% DMSO. Compounds were delivered into the reaction, followed ˜20 min later by addition of a mixture of ATP (Sigma) and 33P ATP (PerkinElmer) to a final concentration of 10 μM. Reactions were carried out at 25° C. for 120 min, followed by spotting of the reactions onto P81 ion exchange filter paper (Whatman). Unbound phosphate was removed by extensive washing of filters in 0.75% phosphoric acid. […] IC50 values and curve fits were obtained using Prism (GraphPad Software). Kinome tree representations were prepared using Kinome Mapper (http://www.reactionbiology.com/apps/kinome/mapper/Launch Kinome.htm). Specifically for the LRRK2 enzyme the substrate LRRKtide (gene bank and protein access numbers NP_940980.2 Q5S007) and clone aa 970-2527 expressed in baculovirus in insect cells with N-terminal GST tag was employed in the study protocol. In the case of DYRK1A (SEQ ID NO 16) the substrate casein (gene bank and protein access numbers NP_001387 Q13627) full length clone expressed in insect with n-terminal tag was used.
A control compound was tested in 10-dose IC50 mode with 3-fold serial dilution starting at 20 μM. Reactions were carried out at 10 μM ATP. Data pages include raw data, % Enzyme activity (relative to DMSO controls), and curve fits.

[4] = test system: MPTP-injected C57 black mice; experiment: MPTP mouse model, post-treatment study; format: in vivo; details: post-administration, oral and i.v routes
Experimental: 32 C57 black mice (C57/bl6, 6-8 week old, 25-30 g) were purchased from Charles River Laboratories, Ohio. […] All animals were housed in Laboratory of Animal Resources vivarium at Iowa State University under standard conditions: constant temperature (22±1° C.), humidity (relative, 30%), and a 12-h light/dark cycle. Mice were allowed free access to food and water. Use of the animals and protocol procedures were approved and supervised by the Committee on Animal Care at Iowa State University (Ames, Iowa). Test compounds were dissolved in PBS for this study. Prior to treatment animals were pre-trained on rotarod for at least 3 minutes every day for three successive days. Group A animals were injected with saline (i.p.) to be used as controls. MPTP was dissolved in PBS and injected intraperitoneally (i.p.) at doses of 25 mg/kg, once daily for 5 days to group B, C and D animals. On day 4, prior to 4th MPTP injection, group C animals received test compounds (30 mg/kg, oral) daily for eight days. Similarly, on day 4, prior to 4th MPTP injection, group D animals received test compounds (5 mg/kg, i.v) daily for eight days. On day 9 (Post-test compounds administration) or day 12 (7 days post-MPTP), 4 animals/group were sacrificed, different brain regions including striatum and substantia nigra were dissected. Left striatum were used for neurochemical analysis. Other 4 animals/group were perfused and used for TH immunohistological studies.

[5] = test system: Rat hepatoma (H4IIE) cell line; experiment: In vitro toxicology, general cytotoxicity; format: cell-based; details: 24 hrs
Experimental: Cells were seeded into 96-well plates and cultured in medium containing 20% bovine serum. […] General cytotoxicity was evaluated by monitoring membrane integrity (MBR, cell supernatant), cell mass (PI) and mitochondrial function (cellular ATP levels). Rotenone was included as a positive control because it produces measurable effects in all three assays. DMSO at 0.5% in medium was included as a negative control. Three wells per exposure concentration were used in each assay. Results are summarized in Table 8 and are expressed as percent of control, with control values set at 100%. […] Test compounds 13 and 13 HCl were rank-ordered from most to least toxic based on individual membrane integrity and ATP responses as well as resultant TC50 values.
Test compounds 13 and 13 HCl were rank-ordered from highest to lowest probability of producing toxicity based first on membrane toxicity, then on ATP, and finally on cell mass (PI). It is important to note that within a given grouping compounds may be classified as to their primary effect being either cytotoxic, cytostatic, or reducing mitochondrial function. In general, compound responses above 80% of vehicle control are considered to be low-to-no effect, moderates generally rank 80% to 50% of vehicle control, and those compounds that cross the 50% mark are considered to have higher probability of toxicity.

Chain of LRRK2 G2019S (Q5S007 970-2527 G2019S): as the sequence (Q5S007 970-2527) above, with G1050S counted along it

Cc1n[nH]c2ncc(-c3cncc(N(C)CC4CCOCC4)n3)cc12 [Compound 71, N-methyl-6-(3-methyl-1H-pyrazolo[3,4-b]pyridin-5-yl)-N-((tetrahydro-2H-pyran-4-yl)methyl)pyrazin-2-amine]
IC50 (LRRK2 G2019S): < 500 nM
AUC(0-t) (in vivo; iv, 5 mg/kg): 1020 ng·h/mL
Vd (in vivo; iv, 5 mg/kg): 15.2 L/kg
clearance (in vivo; iv, 5 mg/kg): 123 mL/min/kg
half-life (in vivo; iv, 5 mg/kg): 2.26 h
AUC(0-t) (in vivo; po, 30 mg/kg): 1040 ng·h/mL
Cmax (in vivo; po, 30 mg/kg): 133 ng/mL
F (in vivo; po, 30 mg/kg): 24%
Tmax (in vivo; po, 30 mg/kg): 6.7 h
IC50 (LRRK2): < 500 nM
protection against MPTP-induced TH cell loss and dopaminergic degeneration in substantia nigra and striatum [1]: dose-dependent protection
locomotor activities in MPTP-injected mice [1]: Improve Locomotor Activities
striatal dopamine levels in MPTP treated mice [1]: Restore Striatal Dopamine Levels
IC50 (DYRK1A): < 500 nM
protection against MPTP-induced TH neuronal loss in the substantia nigra and in the striatum [2]: Protect Against MPTP-Induced TH Neuronal Loss
activity against kinases in broader scope, relative to DMSO control ([3]; ABL1 T315I, ALK2, ARK5, Aurora A/B/C, BRAF, C-KIT, CLK1-4, CSF1R, DYRK1A-4, FLT3, GSK3β, JAK1-3, KDR, LCK ... TRKA-C, single dose): 5-15%

Cc1n[nH]c2ncc(-c3cncc(N4CCOCC4)n3)cc12 [Compound 105, 4-(6-(3-methyl-1H-pyrazolo[3,4-b]pyridin-5-yl)pyrazin-2-yl)morpholine]
protection against MPTP-induced histological deficits [4]: significantly protected
protection against MPTP-induced motor-deficits [4]: significantly protected
protection against MPTP-induced neurochemical deficits [4]: not against neurochemical deficits
IC50 (LRRK2 G2019S): < 500 nM
AUC(0-t) (in vivo; iv, 5 mg/kg): 1020 ng·h/mL
Vd (in vivo; iv, 5 mg/kg): 15.2 L/kg
clearance (in vivo; iv, 5 mg/kg): 123 mL/min/kg
half-life (in vivo; iv, 5 mg/kg): 2.26 h
AUC(0-t) (in vivo; po, 30 mg/kg): 1040 ng·h/mL
Cmax (in vivo; po, 30 mg/kg): 133 ng/mL
F (in vivo; po, 30 mg/kg): 24%
Tmax (in vivo; po, 30 mg/kg): 6.7 h
IC50 (LRRK2): < 500 nM
protection against MPTP-induced TH cell loss and dopaminergic degeneration in substantia nigra and striatum [1]: dose-dependent protection
locomotor activities in MPTP-injected mice [1]: Improve Locomotor Activities
striatal dopamine levels in MPTP treated mice [1]: Restore Striatal Dopamine Levels
IC50 (DYRK1A): < 500 nM
protection against MPTP-induced TH neuronal loss in the substantia nigra and in the striatum [2]: Protect Against MPTP-Induced TH Neuronal Loss
% enzyme inhibition relative to DMSO controls [3]: 5-15%

c1ccc2c(c1)CCN2c1cncc(-c2cnc3[nH]ccc3c2)n1 [Compound 134, 5-(6-(indolin-1-yl)pyrazin-2-yl)-1H-pyrrolo[2,3-b]pyridine]
IC50 (LRRK2 G2019S): < 500 nM
AUC(0-t) (in vivo; iv, 5 mg/kg): 1020 ng·h/mL
Vd (in vivo; iv, 5 mg/kg): 15.2 L/kg
clearance (in vivo; iv, 5 mg/kg): 123 mL/min/kg
half-life (in vivo; iv, 5 mg/kg): 2.26 h
AUC(0-t) (in vivo; po, 30 mg/kg): 1040 ng·h/mL
Cmax (in vivo; po, 30 mg/kg): 133 ng/mL
F (in vivo; po, 30 mg/kg): 24%
Tmax (in vivo; po, 30 mg/kg): 6.7 h
IC50 (LRRK2): < 500 nM
protection against MPTP-induced TH cell loss and dopaminergic degeneration in substantia nigra and striatum [1]: dose-dependent protection
locomotor activities in MPTP-injected mice [1]: Improve Locomotor Activities
striatal dopamine levels in MPTP treated mice [1]: Restore Striatal Dopamine Levels
IC50 (DYRK1A): < 500 nM
protection against MPTP-induced TH neuronal loss in the substantia nigra and in the striatum [2]: Protect Against MPTP-Induced TH Neuronal Loss
% enzyme inhibition relative to DMSO controls [3]: 5-15%

C=C(C)[C@H]1Cc2c(ccc3c2O[C@@H]2COc4cc(OC)c(OC)cc4[C@@H]2C3=O)O1 [Rotenone, reference compound]
solubility (physchem): 1 µM (≈ 0.394 µg/mL)
ATP % Control ([5]; 0.001 μM): 98%
Cell Mass % Control ([5]; 0.001 μM): 105%
Mem Tox % Control ([5]; 0.001 μM): 100%
ATP % Control ([5]; 0.1 μM): 34%
Cell Mass % Control ([5]; 0.1 μM): 54%
Mem Tox % Control ([5]; 0.1 μM): 98%
ATP % Control ([5]; 1 μM): 4%
Cell Mass % Control ([5]; 1 μM): 25%
Mem Tox % Control ([5]; 1 μM): 46%
ATP TC50 [5]: 80 nM
Cell Mass TC50 [5]: 230 nM
Mem Tox TC50 [5]: 930 nM

Reference: patent US9669028B2, “Substituted 5-(pyrazin-2-yl)-1H-pyrazolo [3, 4-B] pyridine and pyrazolo [3, 4-B] pyridine derivatives as protein kinase inhibitors” (Arrien Pharmaceuticals LLC, priority 2011, dated 2017)
